Reference: the NIST ThermoML archive (doi:10.1016/j.fluid.2016.02.013)
Numbers after ± are expanded uncertainties.

Conditions: 101.33 kPa, Liquid; for viscosity: Concentric cylinders viscometry; for mass density: Vibrating tube method; for electrical conductivity: impedance analyzer

A viscosity (298.15 K) of 1025 ± 43 mPa·s, a mass density (298.15 K) of 971.1 ± 0.8 kg/m3 and an electrical conductivity (298.15 K) of 0.00727 S/m were found for CCCC[P+](CCCC)(CCCC)CCCC.O=C([O-])[C@@H]1CCCN1 [tetrabutylphosphonium L-prolinate] in this work. It also gave a viscosity (303.15 K) of 692.8 ± 26 mPa·s, a mass density (303.15 K) of 968.2 ± 0.8 kg/m3 and an electrical conductivity (303.15 K) of 0.0105 S/m. The viscosity (313.15 K) was 343.6 ± 9.6 mPa·s, the mass density (313.15 K) was 962.38 ± 0.79 kg/m3 and the electrical conductivity (313.15 K) was 0.0201 ± 0.04 S/m. For the same molecule, the viscosity (323.15 K) was 186.1 ± 3.8 mPa·s, the mass density (323.15 K) was 956.46 ± 0.79 kg/m3 and the electrical conductivity (323.15 K) was 0.0354 ± 0.04 S/m. The viscosity (333.15 K) was 108.7 ± 1.6 mPa·s, the mass density (333.15 K) was 950.54 ± 0.78 kg/m3 and the electrical conductivity (333.15 K) was 0.0584 ± 0.04 S/m. The viscosity (343.15 K) was 67.74 ± 0.74 mPa·s, the mass density (343.15 K) was 944.63 ± 0.77 kg/m3 and the electrical conductivity (343.15 K) was 0.0907 ± 0.04 S/m. The viscosity (353.15 K) was 44.5 ± 0.47 mPa·s, the mass density (353.15 K) was 938.75 ± 0.77 kg/m3 and the electrical conductivity (353.15 K) was 0.134 ± 0.04 S/m. It also gave a viscosity (363.15 K) of 30.61 ± 0.33 mPa·s and a mass density (363.15 K) of 932.9 ± 0.76 kg/m3.
